Results taken from patent US9907760B2 (LIBRAGEN, priority 2010, dated 2018).
Marks after values point to notes of the source that are not given here.

Tests used:
[1] = system: patients with osteoarthritis; conditions: three-year trial, 212 patients with osteoarthritis, versus slight worsening in placebo group; cited from earlier work
[2] = system: normal human fibroblasts; assay: Procollagen 1 production by normal human fibroblasts treated with supernatant of treated keratinocytes (EIA); format: cell-based; conditions: supernatant on fibroblasts 48 hrs
Description: This experiment was carried out according to the method described in example 3. Fibroblast supernatants, containing procollagen 1, were collected and assayed immediately for procollagen 1 by means of an EIA microtiter plate.
After 48 hours of treatment, NHF cell supernatants were collected and centrifuged.
Procollagen 1 was assayed in the cell supernatants by the method described in the Procollagen Type 1 C-peptide EIA kit (MK101, Takara). This is an EIA assay with spectrophotometric detection at 450 nm (Safire, Tecan).
Duplicate determinations were carried out for two wells whereas the third well was assayed only once.
Optical densities (OD) measured on each sample were plotted on a graph (specific standard curve in the kit). The procollagen 1 concentration was expressed in ng/ml.
As in example 3, the protein content was determined in the cell pellets of the supernatants for which procollagen 1 was assayed.
Thus, the final result was expressed as ng/ml of procollagen 1 per μg of protein. A mean value was calculated for wells treated with the same concentration of test product. This mean was compared with the mean of the control wells (Student t test−comparison of means, significant difference at 95% if p<0.05* and at 99% if p<0.01**).
The percent stimulation produced by the test products was determined by comparing the mean values of the control and treatment conditions: % Stimulation=(Treated−Control)/Control

[3] = system: normal human keratinocytes; assay: Hyaluronic acid production by normal human keratinocytes (HA-ELISA of supernatant); format: cell-based; conditions: 1 μM
Description: Normal human keratinocytes were cultured to confluence. Cells were treated with the test products for 48 hours. The supernatants, containing hyaluronic acid, were collected and assayed immediately. Hyaluronic acid was quantified with an ELISA microtiter plate.
(§1) Primocultures of normal human keratinocytes (NHK) were obtained from cells isolated from skin specimens from plastic surgery.
(§2) NHK were seeded at a density of 130,000 cells/well in specific KSFM culture medium (Gibco®, Invitrogen) in a 24-well plate. The plate was placed in a humid incubator (37° C., 5% CO2) for 24 hours.
The different products at the respective concentrations (diluted in KSFM medium, 600 μl) were contacted with the cells for 48 hours. Untreated cells were used as the control condition.
(§3) Each treatment condition was evaluated on three wells of NHK cells.
After 24 hours of treatment, an intermediate sample of […] of supernatant was removed from each well and the plate returned to the incubator (37° C., 5% CO2).
After 48 hours of treatment, the remaining supernatant (≈350 μA) was collected and centrifuged.
Cell supernatants were assayed according to the method described in the Hyaluronan Enzyme-Linked Immunosorbent Assay kit (HA-ELISA, Echelon Biosciences Inc.). This is an ELISA assay with spectrophotometric detection at 405 nm (Safire, Tecan).
(§4) The assay was performed in duplicate for each well.
(§5) Optical densities (OD) measured on each sample were plotted on a graph (specific standard curve in the kit). The hyaluronic acid concentration was expressed in ng/ml.
(§6) The amount of hyaluronic acid released by the cells was determined for each well and for each treatment condition, relative to the cell content expressed as μg of protein. Thus, the final result was expressed as ng/ml of hyaluronic acid per μg of protein.
A mean value was calculated for wells treated with the same concentration of test product. This mean was compared with the mean of the control wells (Student t test−comparison of means−significant difference at 95% if p<0.05* and at 99% if p<0.01*).
(§7) The percent stimulation induced by the test products was determined by comparing the mean values of the control and treatment conditions: % Stimulation=(Treated−Control)/Control
The vitamin A propionate was dissolved in DMSO.

[4] = system: normal human fibroblasts; assay: Hyaluronic acid production by normal human fibroblasts treated with supernatant of treated keratinocytes (HA-ELISA); format: cell-based; conditions: supernatant on fibroblasts 48 hrs
Description: Normal human dermal fibroblasts were cultured to confluence. Cells were treated for 48 hours with supernatants of normal human keratinocytes previously grown in the presence of the test products. The fibroblast supernatants, containing hyaluronic acid, were collected and assayed immediately. Hyaluronic acid was quantified with an ELISA microtiter plate. Protein content was determined for each well of the microtiter plate.
as §1, §2
Primocultures of normal human fibroblasts (NHF) were obtained from cells isolated from skin specimens from plastic surgery.
NHF were seeded at a density of 90,000 cells/well in E-199 culture medium supplemented with 0.5% FCS (Gibco® Invitrogen) in a 24-well plate. The plate was placed in a humid incubator (37° C., 5% CO2) for 24 hours.
The two cell types—NHK and NHF—were plated 48 hours apart.
The different products at the respective concentrations (diluted in KSFM medium, 600 μl) were contacted with NHK cells for 48 hours. Untreated cells were used as the control condition. Two plates were used to separately test NAG, and NAG+vitamin A propionate, on the one hand, and NAG6P, and NAG6P+vitamin A propionate, on the other hand.
as §3
After 48 hours, a fraction of NHK cell supernatant (300 μl/well) was removed and transferred well for well into NHF cell supernatants (300 μl E-199/well−fresh medium without FCS).
This gave a final volume of 600 μl/well (50:50 ratio of KSFM/E-199 medium) which remained on the NHF cells for 48 hours.
After 48 hours of treatment, the NHF cell supernatant was collected and centrifuged.
Hyaluronic acid was assayed in the cell supernatants as described in example 1.
as §4, §5, §6
A mean value was calculated for wells treated with the same concentration of test product. This mean was compared with the mean of the control wells (Student t test−comparison of means−significant difference at 95% if p<0.05* and at 99% if p<0.01**).
as §7

[5] = system: normal human fibroblasts; assay: Proliferation of normal human fibroblasts treated with supernatant of treated keratinocytes (Cell Proliferation ELISA, BrdU); format: cell-based; conditions: 1 μM on keratinocytes 48 hrs, supernatant on fibroblasts 48 hrs
Description: This experiment evaluated the proliferation of normal human fibroblasts (dermal primocultures) after 48 hours of treatment with supernatant transferred from human keratinocytes.
The “Cell Proliferation ELISA, BrdU” test quantifies cell proliferation by measuring incorporation of bromodeoxyuridine (BrdU) during DNA synthesis followed by luminescence detection.
Cells were placed in the presence of the treatment for a specified time (incubator at 37° C., 5% CO2). The pyrimidine analogue 5-bromo-2′-deoxyuridine (BrdU) was then added and the cells were further incubated (37° C., 5% CO2) for a minimum of 2 hours, during which time BrdU is incorporated in place of thymidine into the DNA of proliferating cells.
The culture medium was removed, then the cells were fixed and the DNA denatured at the same time (antibody accessibility). An anti-BrdU-POD (peroxidase) antibody was added; this antibody binds to BrdU in newly synthesized DNA. The immune complex was then detected by addition of luminol substrate with measurement of luminescence (Genios, Tecan).
NHF were seeded at a density of 5,000 cells/well in E-199 culture medium (Gibco® Invitrogen) in a 96-well Optilux white plate (BD Falcon 353947). The plate was placed in a humid incubator (37° C., 5% CO2) for 24 hours.
The different products at the respective concentrations (diluted in KSFM culture medium, 600 μl) were contacted with NHK cells for 48 hours. Control cells were left untreated. Each treatment conditions was evaluated on three wells of NHK cells.
After 48 hours, a fraction of the NHK cell supernatant was removed. Each sample of supernatant (2 times 100 μl) from a well on the NHK plate (24 wells) was transferred to two wells in the NHF plate already containing 100 μl of E-199 medium per well. […]
Cell proliferation was quantified by the method described in the “Cell Proliferation ELISA, BrdU” kit (Roche Applied Science No. 11669915001). This is an immunological assay with luminescence detection (Genios, Tecan).
The means of the luminescence values (RLU/s) of six wells with the same treatment condition were determined. […] Proliferation of treated cells was expressed as a percentage of the control(untreated cells−100%)(OD treated/OD control×100).

[6] = 1 μM on keratinocytes 48 hrs, NAG6P plate (Table 8)
[7] = 1 μM on keratinocytes 48 hrs, NAG plate (Table 7)
[8] = 1 μM on keratinocytes 48 hrs, NAG6P plate (Table 6)
[9] = 1 μM on keratinocytes 48 hrs, NAG plate (Table 5)
[10] = 5 mM on keratinocytes 48 hrs, vs Control
[11] = 10 mM on keratinocytes 48 hrs, vs Control

N[C@H]1C(O)O[C@H](CO)[C@@H](O)[C@@H]1O (stereo partly drawn) [glucosamine, D-glucosamine]
improvement in symptoms [1]: 20-25%

CCC(=O)OC/C=C(C)/C=C/C=C(C)/C=C/C1=C(C)CCCC1(C)C [Vit. A propionate, vitamin A propionate]
Procollagen 1 [2, 6]: 704.4 ± 38.6 ng/mL
Procollagen 1 (ng/ml/μg prot.) [2, 6]: 81.9 ± 13.0 ng/ml/μg prot.
% stimulation (procollagen 1) ([2]; 1 μM on keratinocytes 48 hrs, NAG6P plate (Table 8), vs DMSO control): 5%
Procollagen 1 [2, 7]: 706.1 ± 73.8 ng/mL
Procollagen 1 (ng/ml/μg prot.) [2, 7]: 64.3 ± 20.1 ng/ml/μg prot.
% stimulation (procollagen 1) ([2]; 1 μM on keratinocytes 48 hrs, NAG plate (Table 7), vs DMSO control): 15%
% stimulation of hyaluronic acid synthesis ([3]; 24 hrs): 34%*
Hyaluronic acid ([3]; 24 hrs): 1056 ± 186.5 ng/mL
% stimulation of hyaluronic acid synthesis ([3]; 24 hrs, listed as vitamin A propionate): 34%
Hyaluronic acid ([3]; 48 hrs): 1944.8 ± 393.2 ng/mL
Hyaluronic acid (ng/ml/μg prot.) ([3]; 48 hrs): 137.1 ± 32.2 ng/ml/μg prot.
% stimulation of hyaluronic acid synthesis ([3]; 48 hrs, vs DMSO control): 105%*
% stimulation of hyaluronic acid synthesis ([3]; 48 hrs, vs DMSO control, listed as vitamin A propionate): 105%
Hyaluronic acid [4, 8]: 3358.8 ± 615.3 ng/mL
Hyaluronic acid (ng/ml/μg prot.) [4, 8]: 389.2 ± 108.3 ng/ml/μg prot.
% stimulation of hyaluronic acid synthesis ([4]; 1 μM on keratinocytes 48 hrs, NAG6P plate (Table 6), vs DMSO control): 7%
Hyaluronic acid [4, 9]: 3645.6 ± 667.8 ng/mL
Hyaluronic acid (ng/ml/μg prot.) [4, 9]: 316.6 ± 68 ng/ml/μg prot.
% stimulation of hyaluronic acid synthesis ([4]; 1 μM on keratinocytes 48 hrs, NAG plate (Table 5), vs DMSO control): −18%
RLU [5]: 4640 ± 267 RLU
% Proliferation ([5]; DMSO control = 100%): 109%**

CC(=O)N[C@H]1C(O)O[C@H](CO)[C@@H](O)[C@@H]1O (stereo partly shown) [NAG, N-acetylglucosamine]
Procollagen 1 ([2]; 5 mM on keratinocytes 48 hrs): 685.9 ± 38.6 ng/mL
Procollagen 1 (ng/ml/μg prot.) ([2]; 5 mM on keratinocytes 48 hrs): 57.3 ± 10.5 ng/ml/μg prot.
% stimulation (procollagen 1) [2, 10]: −37%*
Procollagen 1 ([2]; 10 mM on keratinocytes 48 hrs): 700.9 ± 32.7 ng/mL
Procollagen 1 (ng/ml/μg prot.) ([2]; 10 mM on keratinocytes 48 hrs): 44.9 ± 1.3 ng/ml/μg prot.
% stimulation (procollagen 1) [2, 11]: −51%**
Hyaluronic acid ([4]; 5 mM on keratinocytes 48 hrs): 4277.6 ± 488 ng/mL
Hyaluronic acid (ng/ml/μg prot.) ([4]; 5 mM on keratinocytes 48 hrs): 358.9 ± 81.8 ng/ml/μg prot.
% stimulation of hyaluronic acid synthesis [4, 10]: −17%
Hyaluronic acid ([4]; 10 mM on keratinocytes 48 hrs): 4056.1 ± 315.5 ng/mL
Hyaluronic acid (ng/ml/μg prot.) ([4]; 10 mM on keratinocytes 48 hrs): 258.8 ± 8.1 ng/ml/μg prot.
% stimulation of hyaluronic acid synthesis [4, 11]: −40%**
